For one assay, the target named is T1, Wt EGFR (Homo sapiens, UniProt P00533).
T1 construct: isolated from A431 human epidermoid carcinoma cells which overexpress EGF receptor; endogenous in cells; host or cells: A431 human epidermoid carcinoma cells (receptor purified on wheat germ agglutinin sepharose)
In words: Enzyme assay, IC50 for wt EGFR (Caliper). The assay is classed as biochemical. The conditions noted are these: enzyme phosphorylation assay; read-out: EGFR_WT IC50. As to the method:
Purification of Epidermal Growth Factor Receptor Tyrosine Kinase Human EGF receptor tyrosine kinase was isolated from A431 human epidermoid carcinoma cells which overexpress EGF receptor by the following methods. Cells were grown in roller bottles in 50% Delbuco's Modified Eagle and 50% HAM F-12 nutrient media (Gibco) containing 10% fetal calf serum. Approximately 10^9 cells were lysed in two volumes of buffer containing 20 mM 2-(4N-[2-hydroxyethyl]piperazin-1-yl)ethanesulfonic acid (hepes), pH 7.4, 5 mM ethylene glycol bis(2-aminoethyl ether) N,N,N′,N′-tetraacetic acid, 1% Triton X-1OO, 10% glycerol. 0.1 mM sodium orthovanadate, 5 mM sodium fluoride, 4 mM pyrophosphate, 4 mM benzamide, 1 mM dithiothreitol, 80 μg/mL aprotinin, 40 μg/mL leupeptin and 1 mM phenylmethylsulfonyl fluoride. After centrifugation at 25,000×g for 10 minutes, the supernatant was equilibrated for 2 h at […], with 10 mL of wheat germ agglutinin sepharose that was previously equilibrated with 50 mM Hepes, 10% glycerol, 0.1% Triton X-100 and 150 mM NaCl, pH 7.5, (equilibration buffer). Contaminating proteins were washed from the resin with 1M NaCl in equilibration buffer, and the enzyme was eluted with 0.5M N-acetyl-1-D-glucosamine in equilibration buffer, followed by 1 mM urea. The enzyme was eluted with 0.1 mg/ml EGF.
Determination of IC50 Values for Wt EGFR
Dilute all compounds to 500 μM stock solutions in 100% DMSO and make a serial of 4-fold dilution for 10 does. “Max” and “Min” control contain 100% DMSO. “Max” stands for […], “Min” stands for low control without compounds. Transfer 10 μl of compounds to 90 μl of Ix kinase base buffer to make intermediate dilution. Transfer 5 μl of intermediate dilution compounds to the 384-well assay plate, then 10 μl 2.5× enzyme buffer containing (20 nM EGFR, 5 mM DTT, 1× kinase base buffer) were added to assay plate. […] Incubate at RT for 1 hr and 25 μl stop buffer to end up reaction. Collect conversion data from Caliper and conversion data from Caliper program. Fit the data in XLfit to obtain IC50 values.

A further assay concerns the target EGFR_d746-750 (Homo sapiens, UniProt P00533, DEL746-750). The assay can be described thus: Enzyme assay, IC50 for single mutant EGFR_d746-750 (Caliper). The assay is classed as biochemical. Conditions: enzyme phosphorylation assay. The method, then: (§1) Using the same technique as described in the previous paragraph, various mutated forms of the epidermal growth factor receptor may be isolated from appropriate cell lines which contain them. For example, the EGFR de1746-750 mutant protein may be extracted from PC-9 cells, and the L858R/T790M double mutant EGFR protein may be isolated from H1975 cells.
Determination of IC50 Values for Single Mutant EGFR_d746-750
Dilute all compounds to 500 μM stock solutions in 100% DMSO and make a serial of 4-fold dilution for 10 doses. “Max” and “Min” control contain 100% DMSO. “Max” stands for […], “Min” stands for low control without compounds. Transfer 10 μl of compounds to 90 μl of 1× kinase base buffer to make intermediate dilution. […] Incubate at RT for 1 hr and 25 μl stop buffer to end up reaction. Collect conversion data from Caliper and conversion data from Caliper program. Fit the data in XLfit to obtain IC50 values.

Another assay concerns the target EGFR_T790M/L858R (Homo sapiens, UniProt P00533, L858R/T790M). In words: Enzyme assay, IC50 for double-mutant EGFR (EGFR_T790M/L858R) (Caliper). Type of assay: biochemical. The conditions noted are these: enzyme phosphorylation assay; read-out: EGFR_L858R/T790 IC50. The method, then: as §1
Determination of IC50 Values for Double-Mutant EGFR (EGFR_T790M/L858R)
Dilute all compounds to 500 μM stock solutions in 100% DMSO and make a serial of 4-fold dilution for 10 does. “Max” and “Min” control contain 100% DMSO. “Max” stands for […], “Min” stands for low control without compounds. Transfer 10 μl of compounds to 90 μl of 1× kinase base buffer to make intermediate dilution. […] Incubate at RT for 1 hr and 25 μl stop buffer to end up reaction. Collect conversion data from Caliper and conversion data from Caliper program. Fit the data in XLfit to obtain IC50 values.

In the next assay the target is T2, INSR (Homo sapiens, UniProt P06213).
T2 construct: purchased CARNA BIOSCIENCE 08-142
The assay can be described thus: INSR inhibition assay (Caliper EZ Reader). The assay is classed as biochemical. The conditions noted are these: enzyme assay. The method, then:
(§2) Test compound was dissolved in DMSO at 30 mM. […] 20 nL of these compounds DMSO dilutes were dispensed into a new 384-well assay plate by Echo 550. […] 15 uL of kinase assay buffer containing INSR protein and substrate was transferred to assay plate and incubate at RT for 30 minutes. Kinase assay buffer supplemented with substrate peptides was employed as low control to monitor the background. 40 LM ATP was prepared in kinase assay buffer containing and 5 μL of ATP solution was added to each well to start the reaction. The assay plate was incubated at 25° C. for 180 minutes and the reaction was stopped by adding 40 μL of 0.5 M EDTA.
The result is analyzed in the same manner of […].

Another assay relates to PC9 cells (SM). The assay can be described thus: PC-9 growth inhibition assay (cell proliferation), Method B. Type of assay: cell-based, human. Conditions: cellular proliferation, several runs. The method, then:
(§3) Cell Proliferation Assays—Method B
(§4) Test compounds were dissolved in DMSO at 30 mM.
(§5) The final concentration was 1,000 cells/well. Add medium only as low control. […] 5% CO2 incubator for 72 hours.
(§6) After 72 hours incubation, remove the plates from incubator and equilibrate at room temperature for 15 minutes. Incubate the CellTiter Glo reagents (Promega, G9243) at 37° C. before the experiment. The buffer was equilibrated to room temperature and used to dissolve the substrate. To determine the cell viability, add 40 μL of CellTiter-Glo reagent into each well to be detected (at 1:1 to culture medium). Then the place the plates at room temperature for 30 min followed by read on EnSpire (PerkinElmer).
(§7) For estimation of IC50, the luminescence readout are transformed to % Inhibition by applying the following equation: The IC50 was then
(§8) [formula] calculated by fitting in XLFit to a four parameters logistic curve.
PC-9 Growth Inhibition Assay (Cell Proliferation).
The inhibition assay of PC-9 cells was conducted in the same manner as described above for H1975 cells.

Another assay deals with H1975 cells (DM). In words: H1975 inhibition assay (cell proliferation), Method B. The conditions noted are these: cellular proliferation, several runs. Type of assay: cell-based. As to the method: as §3
H1975 Inhibition Assay (Cell Proliferation).
as §4, §5, §6, §7, §8

Another assay deals with T3, IGF-1R (Homo sapiens, UniProt P08069).
T3 construct: purchased CARNA BIOSCIENCE 08-141
In words: IGF-1R inhibition assay (Caliper EZ Reader). The assay is classed as biochemical. The conditions noted are these: enzyme assay. The method, then:
as §2, with “IGF-1R” for “INSR”, “μM” for “LM”
Phosphorylated fluorescent-tagged peptides were differentiated from non-phosphorylated peptides by separating using Caliper EZ Reader II and the detection was directly converted to conversion ratio.

The subject of a further assay is A431 cells (WT). In words: A431 inhibition assay (cell proliferation), Method B. Type of assay: cell-based, human. The conditions noted are these: Homo sapiens, A-431, 72 h, cellular proliferation, several runs. The method, then: as §3
A431 Inhibition Assay, (Cell Proliferation).
The rest procedure was conducted in the same manner as described above for H1975 cells.

Assay [1] deals with PC9 cells (EGFR d746-750 single mutant). The assay can be described thus: PC-9 growth inhibition assay (cell proliferation), Method A. The assay is classed as cell-based, human. The conditions noted are these: Homo sapiens, PC-9; cellular proliferation, *tested by method A (Table 2); read-out: SM (PC9) IC50. As to the method: (§9) Cell Proliferation Assays—Method A
(§10) The final concentration was 4,000 cells/well. Add medium only as low control.
(§11) Day-2: Test compounds were dissolved in DMSO at 0.2 mM (200×).
(§12) Day-5: After 72 hours incubation, remove the plates from incubator and equilibrate at room temperature for 15 minutes. Incubate the CellTiter Glo reagents (Promega, G9243) at 37° C. before the experiment. The buffer was equilibrated to room temperature and used to dissolve the substrate. To determine the cell viability, add 30 μL of CellTiter-Glo reagent into each well to be detected. Then shake the plates at room temperature for 10 min and followed by plate read on Envision (PerkinElmer).
as §7, §8
PC-9 Growth Inhibition Assay (Cell Proliferation)
The inhibition assay for PC-9 cells was processed in the same manner as described for the H1975 cells.

Assay [2] has as its system NCI-H1975 cells (EGFR L858R/T790 double mutant). The assay can be described thus: H1975 inhibition assay (cell proliferation), Method A. The conditions noted are these: Homo sapiens, NCI-H1975; cellular proliferation, *tested by method A (Table 2); read-out: DM (H1975) IC50. Type of assay: cell-based. As to the method: as §9
H1975 Inhibition Assay (Cell Proliferation)
as §10, §11, §12, §7, §8

The structures appear in SMILES notation. Structures can show the parent of a compound that is named as a salt.

T3 sequence (P08069 959-1367 limits assumed): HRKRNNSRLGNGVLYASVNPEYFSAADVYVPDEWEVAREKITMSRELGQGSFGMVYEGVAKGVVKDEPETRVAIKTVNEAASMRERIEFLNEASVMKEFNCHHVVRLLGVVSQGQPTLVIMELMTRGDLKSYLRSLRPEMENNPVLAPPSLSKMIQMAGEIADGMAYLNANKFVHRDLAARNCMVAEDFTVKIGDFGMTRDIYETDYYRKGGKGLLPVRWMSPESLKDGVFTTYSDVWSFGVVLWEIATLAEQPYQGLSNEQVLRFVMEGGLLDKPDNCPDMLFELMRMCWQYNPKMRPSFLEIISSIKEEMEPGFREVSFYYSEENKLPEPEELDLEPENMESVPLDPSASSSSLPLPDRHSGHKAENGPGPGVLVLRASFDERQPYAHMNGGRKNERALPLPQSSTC
T2 sequence (P06213 989-1382 limits assumed): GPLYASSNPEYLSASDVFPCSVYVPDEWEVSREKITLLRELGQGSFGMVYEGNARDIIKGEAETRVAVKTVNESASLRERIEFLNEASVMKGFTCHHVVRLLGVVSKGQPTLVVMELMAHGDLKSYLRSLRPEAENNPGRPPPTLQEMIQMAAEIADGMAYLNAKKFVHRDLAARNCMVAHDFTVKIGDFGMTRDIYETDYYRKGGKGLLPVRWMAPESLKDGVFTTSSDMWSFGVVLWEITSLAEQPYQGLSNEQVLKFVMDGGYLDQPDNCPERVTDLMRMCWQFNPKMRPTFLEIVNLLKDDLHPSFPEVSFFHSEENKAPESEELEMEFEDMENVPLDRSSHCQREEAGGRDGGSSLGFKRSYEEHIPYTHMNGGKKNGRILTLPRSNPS
Chain of EGFR_d746-750 (P00533 with tags, fused parts or gaps DEL746-750): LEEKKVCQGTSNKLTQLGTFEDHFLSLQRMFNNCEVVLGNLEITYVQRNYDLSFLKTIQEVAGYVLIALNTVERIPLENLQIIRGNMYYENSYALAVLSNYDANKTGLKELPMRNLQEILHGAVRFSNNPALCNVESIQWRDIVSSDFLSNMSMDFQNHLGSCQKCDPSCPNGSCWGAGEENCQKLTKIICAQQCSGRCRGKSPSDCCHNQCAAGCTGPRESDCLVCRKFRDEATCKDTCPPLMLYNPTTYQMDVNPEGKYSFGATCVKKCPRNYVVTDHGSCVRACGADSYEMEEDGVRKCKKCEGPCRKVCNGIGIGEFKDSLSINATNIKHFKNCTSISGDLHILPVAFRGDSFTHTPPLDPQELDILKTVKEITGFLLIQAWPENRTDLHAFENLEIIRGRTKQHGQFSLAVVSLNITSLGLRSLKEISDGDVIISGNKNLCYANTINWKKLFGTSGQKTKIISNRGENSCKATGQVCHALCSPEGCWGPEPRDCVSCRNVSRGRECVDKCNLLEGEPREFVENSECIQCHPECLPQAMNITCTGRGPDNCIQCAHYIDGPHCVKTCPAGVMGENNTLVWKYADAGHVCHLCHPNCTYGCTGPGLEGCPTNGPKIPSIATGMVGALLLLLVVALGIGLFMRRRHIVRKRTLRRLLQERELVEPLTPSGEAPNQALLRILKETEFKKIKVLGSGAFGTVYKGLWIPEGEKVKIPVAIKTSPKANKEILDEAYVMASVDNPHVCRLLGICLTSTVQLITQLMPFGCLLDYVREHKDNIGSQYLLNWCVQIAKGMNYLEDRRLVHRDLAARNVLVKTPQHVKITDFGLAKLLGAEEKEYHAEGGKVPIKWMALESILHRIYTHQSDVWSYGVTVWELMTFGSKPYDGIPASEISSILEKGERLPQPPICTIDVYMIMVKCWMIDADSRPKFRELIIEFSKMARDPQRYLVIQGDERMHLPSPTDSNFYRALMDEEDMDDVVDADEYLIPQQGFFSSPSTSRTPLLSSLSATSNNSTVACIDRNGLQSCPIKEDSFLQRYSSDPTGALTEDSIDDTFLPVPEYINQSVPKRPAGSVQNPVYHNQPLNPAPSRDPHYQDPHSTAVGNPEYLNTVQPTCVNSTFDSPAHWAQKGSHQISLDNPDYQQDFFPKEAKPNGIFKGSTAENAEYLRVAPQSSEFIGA
T1 sequence (P00533 25-1210): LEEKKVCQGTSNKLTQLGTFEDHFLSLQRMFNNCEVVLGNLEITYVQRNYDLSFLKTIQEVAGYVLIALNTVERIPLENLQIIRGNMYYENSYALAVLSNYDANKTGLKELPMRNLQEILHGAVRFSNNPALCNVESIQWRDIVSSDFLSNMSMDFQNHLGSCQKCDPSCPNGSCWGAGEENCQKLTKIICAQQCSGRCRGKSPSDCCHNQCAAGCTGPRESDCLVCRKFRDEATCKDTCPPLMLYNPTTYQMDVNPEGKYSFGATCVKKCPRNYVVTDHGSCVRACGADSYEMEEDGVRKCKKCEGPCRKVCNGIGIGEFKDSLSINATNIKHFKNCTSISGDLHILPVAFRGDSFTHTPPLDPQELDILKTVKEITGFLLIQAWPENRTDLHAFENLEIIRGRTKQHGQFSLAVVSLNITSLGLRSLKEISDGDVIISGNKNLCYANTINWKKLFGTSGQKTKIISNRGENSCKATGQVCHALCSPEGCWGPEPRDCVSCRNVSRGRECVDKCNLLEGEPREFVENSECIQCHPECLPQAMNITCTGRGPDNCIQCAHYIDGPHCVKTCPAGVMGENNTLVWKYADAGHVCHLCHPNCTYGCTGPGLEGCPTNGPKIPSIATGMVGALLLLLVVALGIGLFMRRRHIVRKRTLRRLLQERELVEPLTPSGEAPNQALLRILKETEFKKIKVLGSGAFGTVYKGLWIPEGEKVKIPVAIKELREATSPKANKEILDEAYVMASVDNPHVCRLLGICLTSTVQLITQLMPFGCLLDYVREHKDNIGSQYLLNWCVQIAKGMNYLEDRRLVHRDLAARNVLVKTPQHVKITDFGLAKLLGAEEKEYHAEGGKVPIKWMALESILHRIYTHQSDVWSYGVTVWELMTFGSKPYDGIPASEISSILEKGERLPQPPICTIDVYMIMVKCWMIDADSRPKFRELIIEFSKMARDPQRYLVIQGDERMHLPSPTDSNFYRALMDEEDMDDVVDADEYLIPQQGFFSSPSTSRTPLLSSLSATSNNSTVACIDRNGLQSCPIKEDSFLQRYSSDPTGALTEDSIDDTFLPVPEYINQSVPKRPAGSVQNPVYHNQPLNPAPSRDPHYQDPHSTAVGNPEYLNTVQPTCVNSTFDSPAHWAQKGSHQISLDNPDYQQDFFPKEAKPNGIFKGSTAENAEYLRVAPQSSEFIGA
Chain of EGFR_T790M/L858R (P00533 25-1210 T790M/L858R): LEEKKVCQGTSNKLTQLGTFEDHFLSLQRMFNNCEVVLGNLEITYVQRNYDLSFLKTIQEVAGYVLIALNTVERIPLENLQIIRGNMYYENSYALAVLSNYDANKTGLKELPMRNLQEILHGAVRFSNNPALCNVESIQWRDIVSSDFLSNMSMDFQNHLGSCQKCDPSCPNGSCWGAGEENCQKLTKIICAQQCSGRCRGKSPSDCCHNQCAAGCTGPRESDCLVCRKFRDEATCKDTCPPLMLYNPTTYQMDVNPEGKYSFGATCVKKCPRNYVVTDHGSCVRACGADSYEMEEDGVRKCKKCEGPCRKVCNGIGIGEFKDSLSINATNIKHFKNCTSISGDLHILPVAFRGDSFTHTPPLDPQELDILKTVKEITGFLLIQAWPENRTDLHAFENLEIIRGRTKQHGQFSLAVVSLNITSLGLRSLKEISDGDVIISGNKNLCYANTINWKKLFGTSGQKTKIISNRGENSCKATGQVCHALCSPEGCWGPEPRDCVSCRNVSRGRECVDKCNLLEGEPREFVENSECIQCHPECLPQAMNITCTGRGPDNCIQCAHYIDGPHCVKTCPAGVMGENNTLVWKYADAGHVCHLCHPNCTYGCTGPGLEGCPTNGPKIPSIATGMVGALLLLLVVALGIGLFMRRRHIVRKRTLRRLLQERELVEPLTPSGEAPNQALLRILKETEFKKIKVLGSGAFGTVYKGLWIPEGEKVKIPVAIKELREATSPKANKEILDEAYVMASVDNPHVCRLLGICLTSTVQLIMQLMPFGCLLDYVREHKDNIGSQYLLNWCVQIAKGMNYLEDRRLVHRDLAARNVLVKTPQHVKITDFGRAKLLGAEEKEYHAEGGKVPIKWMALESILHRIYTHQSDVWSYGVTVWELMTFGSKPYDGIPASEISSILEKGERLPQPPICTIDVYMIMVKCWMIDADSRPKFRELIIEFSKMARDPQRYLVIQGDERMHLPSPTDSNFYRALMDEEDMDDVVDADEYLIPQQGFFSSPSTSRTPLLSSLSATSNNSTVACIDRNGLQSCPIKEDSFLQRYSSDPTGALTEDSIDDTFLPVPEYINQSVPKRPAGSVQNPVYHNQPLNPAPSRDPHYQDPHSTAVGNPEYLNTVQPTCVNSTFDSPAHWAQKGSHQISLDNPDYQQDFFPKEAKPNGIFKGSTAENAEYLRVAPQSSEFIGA

For `C=CC(=O)Nc1cc(Nc2nccc(-c3cn(C)c4cccc(C)c34)n2)c(OC)cc1N(C)CCN(C)C` [Example 5, N-(2-(N-(2-(N,N-Dimethylamino)ethyl)-N-methylamino)-4-methoxy-5-(4-(1 N,4-dimethylindol-3-yl)pyrimidin-2-ylamino)phenyl)propenamide], the IC50 was determined as 31 nM at Wt EGFR, 8.2 nM at EGFR_d746-750 and 2.7 nM at EGFR_T790M/L858R.
For the compound `C=CC(=O)Nc1cc(Nc2nccc(-c3c[nH]c4c(C(N)=O)cccc34)n2)c(OC)cc1N(C)CCN(C)C` [Example 16, 3-(2-(5-Acrylamido-4-((2-(dimethylamino)ethyl)(methyl)amino)-2-methoxyphenylamino)pyrimidin-4-yl)-1H-indole-7-carboxamide], the IC50 on INSR is 4.76 nM; in the assay with PC9 cells (SM) (Homo sapiens, PC-9, 72 h), 0.76 nM; in the assay with H1975 cells (DM) (Homo sapiens, NCI-H1975, 72 h), 0.72 nM; on IGF-1R it was 3.94 nM; in the assay on A431 cells (WT) it was 121 nM.
Regarding `C=CC(=O)Nc1cc(Nc2nccc(-n3cc(S(N)(=O)=O)c4ccccc43)n2)c(OC)cc1N(C)CCN(C)C` [Example 17, N-(2-((2-(Dimethylamino)ethyl)(methyl)amino)-4-methoxy-5-(4-(3-sulfamoyl-1H-indol-1-yl)pyrimidin-2-ylamino)phenyl) acrylamide], the IC50 against INSR is 67.6 nM; in the assay with PC9 cells (SM) (Homo sapiens, PC-9, 72 h) it was 0.93 nM; with H1975 cells (DM) (Homo sapiens, NCI-H1975, 72 h), 0.94 nM; at IGF-1R, 71.2 nM; in the assay on A431 cells (WT), 162 nM.
`C=CC(=O)Nc1cc(Nc2nccc(-n3nc(C(N)=O)c4ccccc43)n2)c(OC)cc1N(C)CCN(C)C` [Example 18, 1-(2-(5-Acrylamido-4-((2-(dimethylamino)ethyl)(methyl)amino)-2-methoxyphenylamino)pyrimidin-4-yl)-1H-indazole-3-carboxamide]: the IC50 came out at 2.28 nM against INSR; 0.64 nM in the assay on PC9 cells (SM) (Homo sapiens, PC-9, 72 h); 0.41 nM in the assay with H1975 cells (DM) (Homo sapiens, NCI-H1975, 72 h); 2.15 nM on IGF-1R; 40 nM in the assay on A431 cells (WT).
Turning to `C=CC(=O)Nc1cc(Nc2nccc(-n3cc(CN)c4ccccc43)n2)c(OC)cc1N(C)CCN(C)C` [Example 19, N-(5-(4-(3-(Aminomethyl)-1H-indol-1-yl)pyrimidin-2-ylamino)-2-((2-(dimethylamino)ethyl)(methyl)amino)-4-methoxyphenyl) acrylamide], the IC50 in assay [1] is 16.7 nM; in [2] it was 12.7 nM.
On to `C=CC(=O)Nc1cc(Nc2nccc(-n3nc(N)c4ccccc43)n2)c(OC)cc1N(C)CCN(C)C` [Example 20], for which the IC50 stood at 19.3 nM against INSR; 1.92 nM in the assay with PC9 cells (SM) (Homo sapiens, PC-9, 72 h); 1.54 nM in the assay with PC9 cells (SM) (72 h); 2.35 nM with H1975 cells (DM) (Homo sapiens, NCI-H1975, 72 h); 2.12 nM with H1975 cells (DM) (72 h); 23.5 nM on IGF-1R.
For the compound `C=CC(=O)Nc1cc(Nc2nccc(-n3cc(C(=O)O)c4ccccc43)n2)c(OC)cc1N(C)CCN(C)C` [Example 30, 1-(2-((5-Acrylamido-4-((2-(dimethylamino)ethyl)(methyl)amino)-2-methoxyphenyl)amino)pyrimidin-4-yl)-1H-indole-3-carboxylic acid], the IC50 at INSR came out at 206 nM; with PC9 cells (SM) (Homo sapiens, PC-9, 72 h), 19.2 nM; in the assay on H1975 cells (DM) (Homo sapiens, NCI-H1975, 72 h), 20.4 nM; against IGF-1R, 210 nM; in the assay with A431 cells (WT) it was 1680 nM.
For the compound `C=CC(=O)Nc1cc(Nc2nccc(-n3cc(C(=O)NC)c4ccccc43)n2)c(OC)cc1N(C)CCN(C)C` [Example 36, N-Methyl 1-(2-((5-acrylamido-4-((2-(dimethylamino)ethyl)(methyl)amino)-2-methoxyphenyl)amino)pyrimidin-4-yl)-1H-indole-3-carboxamide hydrochloride], the IC50 in [1] was determined as 57.5 nM; in assay [2], 39.5 nM.

The record behind these values is US10435388B2, “Selective inhibitors of clinically important mutants of the EGFR tyrosine kinase” (CS PHARMATECH LIMITED, priority 2016, dated 2019).
